≈ marks a conversion by molar mass, not a printed value. Where two headings read alike, the source gives them in different places.
Assays:
[1] = test system: clinically isolated strains of MRSA; assay: Antibacterial MIC spectra against 50 clinically isolated strains of MRSA; assay type: cell-based, methicillin-resistant Staphylococcus aureus; conditions: Staphylococcus aureus; for MIC50: 50% of the 50 MRSA strains inhibited, read-out: MIC50; for MIC: range over 50 clinically isolated strains of MRSA, read-out: Antibacterial MIC spectra
Method: (§1) Minimum growth inhibitory concentrations (MIC) of each of 2"-amino-2"-deoxyarbekacin (Compound Ia), 2"-amino-5,2"-dideoxyarbekacin (Compound Ib), 2"-amino-2"-deoxydibekacin (Compound IIa) and 2"-amino-5,2"-dideoxydibekacin (Compound IIb) against various bacteria (20 strains) and against clinically isolated strains of MRSA (50 strains) were determined by standard serial dilution method on Muller-Hinton's agar medium (as estimated after cultivating at 27° C. for 18 hours), and the test results obtained are shown in TABLE 3 and TABLE 4, respectively.
Note:- MIC50 or MIC90 represents the concentration of tested
active compound at which 50% or 90% of the total numbers of the bacterial
strains tested were inhibited from their growth. DKB denotes dibekacin,
(§2) Minimum growth inhibitory concentrations (MIC) of each of 2"-amino-5,2"-dideoxy-5-epi-fluoroarbekacin (Compound XVIa) and 2"-amino-5,2"-dideoxy-5-epi-aminoarbekacin (Compound XVIb) against various bacteria (18 strains) and against clinically isolated strains of MRSA (50 strains) were determined by standard serial dilution method on Muller-Hinton's agar medium (as estimated after cultivation at 27° C. for 18 hours), and the test results obtained are shown in TABLE 5 and TABLE 6, respectively.

[2] = test system: strain of MRSA which exhibits a moderate resistance to arbekacin; assay: Minimum growth inhibitory concentration against MRSA strain moderately resistant to arbekacin; assay type: cell-based, methicillin-resistant Staphylococcus aureus; conditions: Staphylococcus aureus, read-out: minimum growth inhibitory concentration of arbekacin
[3] = test system: Bacillus subtilis PCI219; assay: MIC by standard serial dilution method on Muller-Hinton's agar; assay type: cell-based; conditions: Table 3, 27° C., 18 hours
Method: as §1, §2

[4] = test system: E. coli JR66/W677; assay: as above; assay type: cell-based; conditions: Escherichia coli, JR66/W677, 18 h
Method: as §1, §2

[5] = test system: E. coli K-12 LA290 R55; assay: as above; assay type: cell-based; conditions: Escherichia coli, K12LA290R55, 18 h
Method: as §1, §2

[6] = test system: E. coli K-12 ML1629; assay: as above; assay type: cell-based; conditions: Escherichia coli, K12ML1629; Table 3; 27° C., 18 hours; read-out: MIC
Method: as §1, §2

[7] = test system: Escherichia coli NIHJ; assay: as above; assay type: cell-based; conditions: Table 3, 27° C., 18 hours
Method: as §1, §2

[8] = test system: Klebsiella pneumoniae PCI602; assay: as above; assay type: cell-based; conditions: PCI602, Table 3, 27° C., 18 hours, read-out: MIC
Method: as §1, §2

[9] = test system: P. aeruginosa H9; assay: as above; assay type: cell-based; conditions: Pseudomonas aeruginosa, H9; Table 3; 27° C., 18 hours; read-out: MIC
Method: as §1, §2

[10] = test system: P. aeruginosa PST1; assay: as above; assay type: cell-based; conditions: Pseudomonas aeruginosa, Table 3, 27° C., 18 hours
Method: as §1, §2

[11] = test system: P. aeruginosa TI-13; assay: as above; assay type: cell-based; conditions: Pseudomonas aeruginosa, TI13, 18 h
Method: as §1, §2

[12] = test system: Proteus vulgaris OX19; assay: as above; assay type: cell-based; conditions: OX19, Table 3, 27° C., 18 hours, read-out: MIC
Method: as §1, §2

[13] = test system: Providencia rettgeri GN311; assay: as above; assay type: cell-based; conditions: GN311, Table 3, 27° C., 18 hours, read-out: MIC
Method: as §1, §2

[14] = test system: Pseudomonas aeruginosa A3; assay: as above; assay type: cell-based; conditions: A3, Table 3, 27° C., 18 hours, read-out: MIC
Method: as §1, §2

[15] = test system: S. aureus Smith; assay: as above; assay type: cell-based; conditions: Staphylococcus aureus; Table 3; 27° C., 18 hours
Method: as §1, §2

[16] = test system: S. epidermidis 109; assay: as above; assay type: cell-based; conditions: Staphylococcus epidermidis, 109; Table 3; 27° C., 18 hours; read-out: MIC
Method: as §1, §2

[17] = test system: Salmonella typhi T-63; assay: as above; assay type: cell-based; conditions: Salmonella enterica, Table 3, 27° C., 18 hours
Method: as §1, §2

[18] = test system: Serratia marcescens; assay: as above; assay type: cell-based; conditions: Table 3, 27° C., 18 hours, read-out: MIC
Method: as §1, §2

[19] = test system: Shigella dysenteriae JSI1910; assay: as above; assay type: cell-based; conditions: JSI1910, 18 h
Method: as §1, §2

[20] = test system: Staphylococcus aureus FDA209P; assay: as above; assay type: cell-based; conditions: Table 3, 27° C., 18 hours
Method: as §1, §2

[21] = test system: B. cereus ATCC10702; assay: as above; assay type: cell-based; conditions: Bacillus cereus, ATCC10702; Table 3; 27° C., 18 hours; read-out: MIC
Method: as §1

[22] = test system: E. coli K-12 ML1410; assay: as above; assay type: cell-based; conditions: Escherichia coli, K12ML1410; Table 3; 27° C., 18 hours
Method: as §1

[23] = Acute toxicity, single intravenous administration to mice; assay type: in vivo; conditions: mouse, in vivo, iv
From the text: (§3) 50% Lethal dosages (LD50, observations for two weeks) of the new compounds of this invention as estimated upon single intravenous administration to mice (ICR-strain, 4 weeks old, female) are as follows:
(§4) 50% Lethal dosages (LD50, observations for two weeks) of the new compounds of general formula (XVI) according to the seventh aspect of this invention as estimated upon single intravenous administration to mice (ICR-strain, 4 weeks old, female) are as follows: […]

[24] = test system: mice; assay: as above; assay type: in vivo; conditions: mice / mammals
From the text: as §3, §4

[25] = Solubility in water; assay type: physicochemical
[26] = test system: gram-positive and gram-negative bacteria; assay: Antibacterial activities against gram-positive and gram-negative bacteria; assay type: cell-based
Method: as §1, §2

`NCC[C@H](O)C(=O)N[C@@H]1C[C@H](N)[C@@H](O[C@H]2O[C@H](CN)CC[C@H]2N)[C@H](O)[C@H]1O[C@H]1O[C@H](CO)[C@@H](O)[C@H](N)[C@H]1O` [ABK, (S)-1-N-(4-amino2-hydroxybutyryl)dibekacin, reference compound] showed an MIC50 ([1]; 27° C., 18 hours) of 0.39 µg/mL (≈ 0.706 µM), an MIC90 ([1]; 90% of the 50 MRSA strains inhibited, 27° C., 18 hours, read-out: MIC90) of 6.25 µg/mL (≈ 11.3 µM) and an MIC ([1]; 27° C., 18 hours) of 0.2 to 6.25 µg/mL (≈ 0.362 to 11.3 µM). It also gave an MIC [2] of 6.25 to 12.5 µg/mL (≈ 11.3 to 22.6 µM).
Work on `NCC[C@H](O)C(=O)N[C@@H]1C[C@H](N)[C@@H](O[C@H]2O[C@H](CN)CC[C@H]2N)C[C@H]1O[C@H]1O[C@H](CO)[C@@H](O)[C@H](N)[C@H]1N` [Compound Ib, 2"-Amino-5,2"-dideoxyarbekacin] yielded an MIC [3] of no more than 0.2 µg/mL, an MIC [4] of 3.13 µg/mL (≈ 5.84 µM) and an MIC [5] of 0.78 µg/mL (≈ 1.46 µM). For the same compound, the MIC [6] was 1.56 µg/mL (≈ 2.91 µM), the MIC [7] was 0.39 µg/mL (≈ 0.728 µM) and the MIC [8] was 0.78 µg/mL (≈ 1.46 µM). The MIC [9] was 3.13 µg/mL (≈ 5.84 µM), the MIC [10] was 6.25 µg/mL (≈ 11.7 µM) and the MIC [11] was 1.56 µg/mL (≈ 2.91 µM). It also gave an MIC [12] of 0.78 µg/mL (≈ 1.46 µM), an MIC [13] of 0.78 µg/mL (≈ 1.46 µM) and an MIC [14] of 0.39 µg/mL (≈ 0.728 µM). For the same compound, the MIC [15] was no more than 0.2 µg/mL, the MIC [16] was 0.39 µg/mL (≈ 0.728 µM) and the MIC [17] was 0.78 µg/mL (≈ 1.46 µM). The MIC [18] was 6.25 µg/mL (≈ 11.7 µM), the MIC [19] was 1.56 µg/mL (≈ 2.91 µM) and the MIC [20] was no more than 0.2 µg/mL. The MIC [21] was 0.78 µg/mL (≈ 1.46 µM), the MIC [22] was 1.56 µg/mL (≈ 2.91 µM) and the MIC90 ([1]; MRSA, 18 h) was 1.56 µg/mL (≈ 2.91 µM). The MIC50 ([1]; 27° C., 18 hours) was 0.78 µg/mL (≈ 1.46 µM), the MIC ([1]; 27° C., 18 hours) was 0.2 to 3.13 µg/mL (≈ 0.373 to 5.84 µM) and the LD50 at 336 h [23] was 50 to 100 mg/kg. For the same compound, the “acute toxicity (in words)” value [24] was “higher acute toxicity to mice than that of 2"-amino-2"-deoxyarbekacin”, the Solubility [25] was “easily soluble in water” and the “antibacterial activity (in words)” value [26] was “broad and excellent antibacterial activity”.

Reference: patent publication US5618795A, “Dibekacin derivatives and arbekacin derivatives active against resistant bacteria, and the production thereof” (Zaidan Hojin Biseibutsu Kagaku Kenkyu Kai, priority 1992, dated 1997)
